# Patent US8420675B2, “Aminotetrahydroindazoloacetic acids” (Hoffmann-La Roche Inc., priority 2008, dated 2013)
# Target: T1, human CRTH2 (Homo sapiens, UniProt Q9Y5Y4)
# T1 construct: expressed in transfected cells
# T1 sequence (Q9Y5Y4 1-395): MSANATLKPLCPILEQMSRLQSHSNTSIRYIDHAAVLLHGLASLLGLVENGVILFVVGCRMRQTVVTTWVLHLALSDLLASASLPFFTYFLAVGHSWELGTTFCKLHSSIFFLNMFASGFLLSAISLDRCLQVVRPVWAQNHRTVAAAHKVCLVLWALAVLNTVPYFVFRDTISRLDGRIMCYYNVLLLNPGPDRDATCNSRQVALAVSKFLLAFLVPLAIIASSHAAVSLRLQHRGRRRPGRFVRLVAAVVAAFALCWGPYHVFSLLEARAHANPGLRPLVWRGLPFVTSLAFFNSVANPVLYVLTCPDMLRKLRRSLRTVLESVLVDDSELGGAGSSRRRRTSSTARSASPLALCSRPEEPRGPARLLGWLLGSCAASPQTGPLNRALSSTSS
# Assay: Human CRTH2 Receptor Binding Assay (whole cell, [3H]ramatroban competition)
# Settings: CHO-K1 cells expressing human CRTH2 and G-alpha16; 20 nM [3H]ramatroban; 1 hour, room temperature
# From the text: A whole cell receptor binding assay using [^3H]ramatroban as the competing radioactive ligand was employed to evaluate the compound binding activity to human CRTH2. The radioactive ligand [^3H]ramatroban was synthesized according to Sugimoto et. al. (Eur. J. Pharmacol. 524, 30-37, 2005) to a specific activity of 42 Ci/mmol.
# A cell line stably expressing human CRTH2 was established by transfecting CHO-K1 cells with two mammalian expression vectors that harbored human CRTH2 and G-alpha16 cDNAs, respectively, using FuGene® 6 transfection reagent (from Roche). Stable clones expressing CRTH2 were selected by staining each clone with BM16 (BD Pharmingen™ from BD Biosciences, a division of Becton, Dickinson and Company), which is a rat monoclonal antibody to human CRTH2. The cells were maintained as monolayer cultures in Ham's F-12 medium containing 10% fetal bovine serum, 100 units/mL penicillin, 100 μg/mL streptomycin, 2 mM glutamine, 0.5 mg/mL G418 (geneticin) for CRTH2, and 0.2 mg/mL hygromycin-B (for G-alpha 16). For whole cell receptor binding assay, the monolayer cells were rinsed once with PBS (phosphate buffered saline), dissociated using ethylenediaminetetraacetate (Versene™ EDTA Lonza Inc.), and suspended in PBS containing 10 mM MgCl2 and 0.06% BSA (bovine serum albumin) at 1.5×10^6 cells/mL.
# The binding reactions (0.2 mL) were performed in 96-well plates at room temperature in PBS containing 1.5×10^5 cells, 10 mM MgCl2, 0.06% BSA, 20 nM [^3H]ramatroban, and test compound at various concentrations. After 1 hour of binding reactions, the cells were harvested on GF™/B filter microplates (microtiter plates with embedded glass fiber from PerkinElmer, Inc.) and washed 5 times with PBS using a Filtermate™ Harvester (a cell harvester that harvests and washes cells from microplates from PerkinElmer, Inc.). The radioactivities bound to the cells were determined using a microplate scintillation counter (TopCount® NXT, from PerkinElmer, Inc.) after adding 50 μL of Microscint™ 20 scintillation fluid (from PerkinElmer, Inc.) to each well of the filter plates. The radioactivity from non-specific binding was determined by replacing compound with 10 μM of 15(R)-15-methyl PGD2 (from Cayman Chemical Company) in the reaction mixtures. The radioactivity bound to the cells in the absence of compound (total binding) was determined by replacing compound with 0.25% of DMSO (dimethyl sulfoxide) in the reaction mixture. Specific binding data were obtained by subtracting the radioactivity of non-specific binding from each binding data.
# The IC50 value is defined as the concentration of the tested compound that is required for 50% inhibition of total specific binding. In order to calculate the IC50 value, the percent inhibition data were determined for 7 concentrations for each compound. The percent inhibition for a compound at each concentration was calculated according to the following formula, [1-(specific binding in the presence of compound)/(total specific binding)]x100. The IC50 value was then obtained by fitting the percent inhibition data to a sigmoidal dose-response (4 parameter logistic) model in the XLfit® software Excel add-in program [from ID Business Solutions Ltd., model 205, where F(x)=(A+(B−A)/(1+((C/x)^D)))].
row,Structure (SMILES),IC50 [µM]
1,"CN([C@@H]1CCCc2c1cnn2CC(=O)O)S(=O)(=O)c1cnc(Oc2ccc(F)cc2Cl)c(Br)c1 [Example 6-6a, ((R)-4-{[5-Bromo-6-(2-chloro-4-fluoro-phenoxy)-pyridine-3-sulfonyl]-methyl-amino}-4,5,6,7-tetrahydro-indazol-1-yl)-acetic acid]",0.0068
2,"O=C(O)Cn1ncc2c1CCCC2NS(=O)(=O)c1cccc(NC(=O)c2ccccc2)c1 (stereo not drawn) [Example 14-1a, [4-(3-Benzoylamino-benzenesulfonylamino)-4,5,6,7-tetrahydro-indazol-1-yl]-acetic acid]",0.356
3,"CN([C@@H]1CCCc2c1cnn2CC(=O)O)S(=O)(=O)c1cnc(Oc2ccc(Cl)c(F)c2)c(Br)c1 [Example 6-10a, ((R)-4-{[5-Bromo-6-(4-chloro-3-fluoro-phenoxy)-pyridine-3-sulfonyl]-methyl-amino}-4,5,6,7-tetrahydro-indazol-1-yl)-acetic acid]",0.0187
4,"O=C(O)Cn1ncc2c1CCCC2NS(=O)(=O)c1ccc(-c2cc(C(F)(F)F)cc(C(F)(F)F)c2)cc1 (stereo not drawn) [Example 10-24a, [4-(3′,5′-Bis-trifluoromethyl-biphenyl-4-sulfonylamino)-4,5,6,7-tetrahydro-indazol-1-yl]-acetic acid]",0.0975
5,"O=C(O)Cn1ncc2c1CCC[C@H]2NS(=O)(=O)c1ccc(-c2ccccc2)cc1 [Example 1-2a, [(R)-4-(Biphenyl-4-sulfonylamino)-4,5,6,7-tetrahydro-indazol-1-yl]-acetic acid]",0.0936
6,"CC(=O)Nc1ccc(Oc2ccc(S(=O)(=O)N(C)[C@@H]3CCCc4c3cnn4CC(=O)O)cc2Cl)cc1 [Example 9-27a, ((R)-4-{[4-(4-Acetylamino-phenoxy)-3-chloro-benzenesulfonyl]-methyl-amino}-4,5,6,7-tetrahydro-indazol-1-yl)-acetic acid]",0.0491
7,"CN([C@@H]1CCCc2c1cnn2CC(=O)O)S(=O)(=O)c1cc(Oc2ccc(F)cc2)cc(C(F)(F)F)c1 [Example 9-42a, ((R)-4-{[3-(4-Fluoro-phenoxy)-5-trifluoromethyl-benzenesulfonyl]-methyl-amino}-4,5,6,7-tetrahydro-indazol-1-yl)-acetic acid]",0.0226
8,"O=C(O)Cn1ncc2c1CCCC2NS(=O)(=O)c1cnc(Oc2ccc(F)cc2)c(Br)c1 (stereo not drawn) [Example 2-2a, {4-[5-Bromo-6-(4-fluoro-phenoxy)-pyridine-3-sulfonylamino]-4,5,6,7-tetrahydro-indazol-1-yl}-acetic acid]",0.0311
9,"O=C(O)Cn1ncc2c1CCCC2NS(=O)(=O)c1ccc(-c2cccnc2)cc1 (stereo not drawn) [Example 10-2a, [4-(4-Pyridin-3-yl-benzenesulfonylamino)-4,5,6,7-tetrahydro-indazol-1-yl]-acetic acid]",0.371
10,"C[Si](C)(C)c1cccc(-c2ccc(S(=O)(=O)N[C@@H]3CCCc4c3cnn4CC(=O)O)cc2)c1 [Example 10-26a, [(R)-4-(3′-Trimethylsilanyl-biphenyl-4-sulfonylamino)-4,5,6,7-tetrahydro-indazol-1-yl]-acetic acid]",0.0021
11,"O=C(O)CCn1ncc2c1CCC[C@H]2NS(=O)(=O)c1ccc(-c2cccc(C(F)(F)F)c2)cc1 [Example 10-31a, 3-[(R)-4-(3′-Trifluoromethyl-biphenyl-4-sulfonylamino)-4,5,6,7-tetrahydro-indazol-1-yl]-propionic acid]",0.0056
12,"CN([C@@H]1CCCc2c1cnn2CC(=O)O)S(=O)(=O)c1ccc(Oc2ccc(F)cc2Cl)cc1Cl [Example 9-9a, ((R)-4-{[2-Chloro-4-(2-chloro-4-fluoro-phenoxy)-benzenesulfonyl]-methyl-amino}-4,5,6,7-tetrahydro-indazol-1-yl)-acetic acid]",0.07
13,"Cc1nnc(-c2cccc(S(=O)(=O)NC3CCCc4c3cnn4CC(=O)O)c2)o1 (stereo not drawn) [Example 1-4a, {4-[3-(5-Methyl-[1,3,4]oxadiazol-2-yl)-benzenesulfonylamino]-4,5,6,7-tetrahydro-indazol-1-yl}-acetic acid]",0.244

# The remaining molecules from weak to strong by IC50, led by results:
row,IC50 [µM],Structure (SMILES)
1,0.37,"COc1cccc(-c2ccc(S(=O)(=O)NC3CCCc4c3cnn4CC(=O)O)cc2)c1 (stereo not drawn) [Example 10-10a, [4-(3′-Methoxy-biphenyl-4-sulfonylamino)-4,5,6,7-tetrahydro-indazol-1-yl]-acetic acid]"
2,0.36,"O=C(O)Cn1ncc2c1CCCC2NS(=O)(=O)c1cccc(NS(=O)(=O)c2ccccc2)c1 (stereo not drawn) [Example 15-1a, [4-(3-Benzenesulfonylamino-benzenesulfonylamino)-4,5,6,7-tetrahydro-indazol-1-yl]-acetic acid]"
3,0.272,"CCOc1cccc(-c2ccc(S(=O)(=O)NC3CCCc4c3cnn4CC(=O)O)cc2)c1 (stereo not drawn) [Example 10-20a, [4-(3′-Ethoxy-biphenyl-4-sulfonylamino)-4,5,6,7-tetrahydro-indazol-1-yl]-acetic acid]"
4,0.207,"O=C(O)Cn1ncc2c1CCCC2NS(=O)(=O)c1ccc(-c2ccc(Cl)cc2)cc1 (stereo not drawn) [Example 10-6a, [4-(4′-Chloro-biphenyl-4-sulfonylamino)-4,5,6,7-tetrahydro-indazol-1-yl]-acetic acid]"
5,0.153,"O=C(O)Cn1ncc2c1CCC[C@H]2NS(=O)(=O)c1ccc(-c2cccc(Cl)c2)cc1 [Example 10-13a, [(R)-4-(3′-Chloro-biphenyl-4-sulfonylamino)-4,5,6,7-tetrahydro-indazol-1-yl]-acetic acid]"
6,0.0082,"CN([C@@H]1CCCc2c1cnn2CC(=O)O)S(=O)(=O)c1cnc(Oc2ccc(C#N)cc2)c(Br)c1 [Example 6-14a, ((R)-4-{[5-Bromo-6-(4-cyano-phenoxy)-pyridine-3-sulfonyl]-methyl-amino}-4,5,6,7-tetrahydro-indazol-1-yl)-acetic acid]"
7,0.0078,"O=C(O)Cn1ncc2c1CCC[C@H]2NS(=O)(=O)c1cnc(Oc2ccc(Cl)cc2)c(Br)c1 [Example 2-8a, {(R)-4-[5-Bromo-6-(4-chloro-phenoxy)-pyridine-3-sulfonylamino]-4,5,6,7-tetrahydro-indazol-1-yl}-acetic acid]"
8,0.0071,"CN([C@@H]1CCCc2c1cnn2CC(=O)O)S(=O)(=O)c1cnc(Oc2ccc(Cl)cc2F)c(Br)c1 [Example 6-9a, ((R)-4-{[5-Bromo-6-(4-chloro-2-fluoro-phenoxy)-pyridine-3-sulfonyl]-methyl-amino}-4,5,6,7-tetrahydro-indazol-1-yl)-acetic acid]"
9,0.0058,"COc1ccc(S(=O)(=O)c2cc(C(F)(F)F)cc(S(=O)(=O)N(C)[C@@H]3CCCc4c3cnn4CCC(=O)O)c2)cc1 [Example 13-5a, 3-((R)-4-{[3-(4-Methoxy-benzenesulfonyl)-5-trifluoromethyl-benzenesulfonyl]-methyl-amino}-4,5,6,7-tetrahydro-indazol-1-yl)-propionic acid]"
10,0.0055,"CN([C@@H]1CCCc2c1cnn2CC(=O)O)S(=O)(=O)c1ccc(Oc2ccccc2Cl)c(Cl)c1 [Example 9-1a, ((R)-4-{[3-Chloro-4-(2-chloro-phenoxy)-benzenesulfonyl]-methyl-amino}-4,5,6,7-tetrahydro-indazol-1-yl)-acetic acid]"
11,0.0025,"CN([C@@H]1CCCc2c1cnn2CCC(=O)O)S(=O)(=O)c1cc(C(F)(F)F)cc(S(=O)(=O)c2ccc(Cl)cc2)c1 [Example 13-4a, 3-((R)-4-{[3-(4-Chloro-benzenesulfonyl)-5-trifluoromethyl-benzenesulfonyl]-methyl-amino}-4,5,6,7-tetrahydro-indazol-1-yl)-propionic acid]"
